# What was measured:
# [1] = mice; cited from earlier work
# [2] = rat, in vivo, iv; cited from earlier work
# [3] = In vitro release of NGF by dialysis in 5% BSA-PBS; type: physicochemical; conditions: 5% BSA-PBS (pH 7), 37° C., first hour (n=4)
# Protocol: In vitro release study. The release of NGF from NGF NPs (n=4) was studied using a dialysis method. The release medium was PBS (pH 7) containing 5% BSA to mimic the physiological condition in blood. Briefly, 200 μl NGF NPs and […] release medium were loaded into the dialysis tube (invco 300 kDa). Then the dialysis tube was placed into a 30 ml release medium and shaken at a 37° C. at 135 rpm. At the time intervals (1, 2, 4, 6, 8, 24, 48 and 72 hours), 100 μl of the release medium were withdrawn and replaced with an equal volume of fresh medium. The amounts of released NGF in the medium were analyzed by a NGF Sandwich ELISA kit. As a control, free NGF (n=4) was studied in parallel.
# PC12 cells = assay: Neurite outgrowth study; type: cell-based
# Protocol: Neurite Outgrowth Study. It is important to maintain protein's activity after the formulation of the NPs. Thus, the inventors chose to measure the bioactivity of NGF HDL-mimicking NPs in PC12 cells for neurite outgrowth. They pre-coated a 6-well plate with rat tail collagen type I. They seeded PC12 cells at a density of 10000 cells/well to the pre-coated 6-well plate overnight to allow cells to attach on the plates. They diluted free NGF (10 μg/ml) and NGF HDL-mimicking NPs (10 μg/ml) with the culture medium to prepare various concentrations at 0.5, 1, 5, 10, 50, and 100 ng/ml using half-half dilution. Then, they added 100 μl of sample into each well of the plate and culture for 4 days. At day 4 they changed the medium to fresh medium containing the corresponding treatment and then continue the treatment for another 3 days. At day 7, they visualized cells by an inverted light microscope and take the imaging from each well at random spots under 10× magnification.
Molecule,maximal tolerate dose of single dose [1] [mg/kg],half-life [2],NGF released [3] [%],"neurite outgrowth (PC12 cells; day 7, concentration of NGF lower than 10 ng/ml)","neurite outgrowth (PC12 cells; day 7, treatment concentration higher than 10 ng/ml)"
"CC(=O)O[C@@]12CO[C@@H]1C[C@H](O)[C@@]1(C)C(=O)[C@H](O)C3=C(C)[C@@H](OC(=O)[C@H](O)[C@@H](NC(=O)OC(C)(C)C)c4ccccc4)C[C@@](O)([C@@H](OC(=O)c4ccccc4)[C@H]21)C3(C)C [DTX, Docetaxel]",15 to 33,,,,
free NGF: Recombinant human NGF (nerve growth factor),,about 5.4 min,83,neurite outgrowth cannot be observed clearly,neurite outgrowth was clearly observed

# Source: patent US20170165200A1, “COMPOSITION OF LIPID-BASED NANOPARTICLES FOR SMALL MOLECULES AND MACROMOLECULES” (University of North Texas Health Science Center, priority 2015, published 2017)
